# System: DoHH2 B-cell lymphoma cells
# Assay: DoHH2 B Cell Lymphoma Proliferation Assay
# Assay type: cell-based
# Details: Homo sapiens, DOHH-2; 72 hour incubation, flow cytometry with counting beads and eFluor 450
# Description: In vitro potency of test compounds was determined by incubation with DoHH2 B-cell lymphoma cells and subsequent determination of cell number using flow cytometry.
# Flow cytometry is a laser-based, biophysical technology employed in cell counting, cell sorting, and biomarker detection, by suspending cells in a stream of fluid and passing them by an electronic detection apparatus. It allows simultaneous multi-parametric analysis of the physical and chemical characteristics of up to thousands of particles per second. To quantify cell numbers, counting beads are used as an internal standard. Counting beads are a calibrated suspension of microbeads which are added to a known volume of sample so the sample volume per bead is known. This allows the absolute determination of cell number in a sample. Cell proliferation is measured using a dye known as Cell Proliferation Dye (eFluor® 450). eFluor® 450 is an organic dye which can be conjugated to cell-specific markers. […]
# The average results for each test compound were expressed as a percent (%) of the average control value reflecting cell viability. The average values across the concentrations tested were then plotted and an IC50 was calculated by fitting the data to a 4-parameter IC50 equation using KaleidaGraph software (Synergy Software, Reading, Pa. USA).
row,Compound,IC50 [nM]
1,"C[C@]1(O)CC[C@@H](NS(=O)(=O)c2ccc(-c3ccc(F)cc3F)cc2)CC1 [ABD899, reference compound]",135
2,"C[C@]1(O)CC[C@@H](NS(=O)(=O)c2ccc(-c3ccc(C#N)cc3)c(F)c2)CC1 [HMC-C-07-B, 4′-Cyano-2-fluoro-N-((1s,4s)-4-hydroxy-4-methylcyclohexyl)-[1,1′-biphenyl]-4-sulfonamide]",186

# — patent publication US10005733B2, “N-(4-hydroxy-4-methyl-cyclohexyl)-4-phenyl-benzenesulfonamide and N-(4-hydroxy-4-methyl-cyclohexyl)-4-(2-pyridyl)-benzenesulfonamide compounds and their therapeutic use” (PIMCO 2664 LIMITED, priority 2014, dated 2018)
